Results as given in patent publication US11236053B2, “NADPH oxidase inhibitors and uses thereof” (Emory University, priority 2017, dated 2022).

Legend:
[1] = Superoxide scavenging assay (xanthine/xanthine oxidase, cytochrome C); type: biochemical; conditions: in vitro, concentrations up to 100 μM, superoxide from xanthine/xanthine oxidase
Protocol: (§1) ROS scavenging by sulfonylurea compound 23, 24, or 25 was assessed in vitro. Superoxide was generated with xanthine/xanthine oxidase and measured using the cytochrome C assay. In addition, 5 μM hydrogen peroxide was added exogenously and measured using the Amplex Red™ assay. ROS were measured in the presence of indicated concentrations of each compound or DMSO solvent. Bars represent means±SEM of 4 (superoxide) or 3 (hydrogen peroxide) independent experiments. Differences between DMSO and sulfonylurea compounds are not significant.
(§2) To assess ROS scavenging, the consumption of superoxide, generated by xanthine/xanthine oxidase, or of exogenous hydrogen peroxide, was measured by increasing concentrations of the compounds of interest.
An assay was developed based on the measurement of superoxide-dependent changes in cytochrome C absorbance at 550 nm. Briefly, superoxide was generated in vitro in phosphate buffered saline solution, using hypoxanthine (100 μM)/xanthine oxidase (6×10^3 U/mL) in the presence of catalase (200 U/mL) to eliminate H2O2. Compounds under study were added at various concentrations (1-100 μM) and remaining superoxide was measured with cytochrome C (46 μM). Superoxide dismutase (575 U/mL) was used as a positive control in separate samples measured at the same time. Following a 1 min stabilization period, absorbance was measured at 550 nm in a microplate reader (Biotek), using a kinetic program (1 read/min) for 15 min. The linear slope representing the rate of superoxide production was used to calculate the percentage of superoxide scavenging.

[2] = Hydrogen peroxide scavenging assay (Amplex Red); type: biochemical; conditions: in vitro, concentrations up to 100 μM, 5 μM exogenous hydrogen peroxide
Protocol: as §1, §2
Hydrogen peroxide was measured in vitro, using an Amplex Red™ assay kit (Invitrogen), according to the manufacturer's instructions. This assay measures the oxidation of Amplex Red™ (10-acetyl-3,7-dihydroxyphenoxazine) to fluorescent resorufin in the presence of horseradish peroxidase. Briefly, H2O2 ([…]) was added to various concentrations (1-100 μM) of the compounds under study in reaction buffer. After an incubation of 5 min, Amplex Red™ was added to measure remaining H2O2. Reactions were incubated for 30 min at room temperature, protected from light. Resorufin fluorescence was measured in a microplate reader (Biotek) using excitation at 530 nm and emission at 590 nm.

Nox4-dependent signaling = test: TGF-β-induced α-SMA upregulation in human aortic smooth muscle cells (Western blot); type: cell-based; conditions: HASMCs pretreated 30 min, TGF-β 24 h, Western blot normalized to β-tubulin
Protocol: Human aortic smooth muscle cells in culture were incubated with indicated concentrations of compound 23, 24, or 25 and stimulated with 2 ng/ml TGF-β for 24 h to induce a Nox4-dependent upregulation of smooth muscle alpha-actin (α-SMA). Protein expression was measured by Western blotting and normalized to β-tubulin. In the absence of inhibitor, α-SMA induction by TGF-β was maximal (100%).
Cells were pretreated with a candidate inhibitor 30 min before exposure to TGF-β and harvested after 24 h. Actin expression was measured by western blotting with a specific antibody.

Nox4 mRNA = Nox4 mRNA qPCR assay in TGF-β-stimulated cells; type: cell-based, human; conditions: preincubation, same range of concentrations as FIG. 11, TGF-β stimulated
[3] = tested on: human aortic smooth muscle cells; test: Mammalian cell live/dead viability assay; type: cell-based; conditions: TGF-β stimulated, n=6
Protocol: To rule out a possible toxic effect of these compounds in cultured cells, cell viability was measured using a commercial mammalian cell live/dead assay. Stimulation with TGF-β alone had no effect on cell viability (99±0.61%, P=NS, n=4).

hippocampal brain slices = hippocampal brain slices treated with Nox 4 inhibitors; cited from earlier work

Row | SMILES | effect on superoxide (ROS scavenging) [1] | effect on hydrogen peroxide (ROS scavenging) [2] | inhibition of Nox4-dependent signaling (α-SMA expression) (Nox4-dependent signaling) | effect on Nox4 expression (Nox4 mRNA) (Nox4 mRNA) | cell viability ([3]; 100 μM preincubation) [%] | cell viability ([3]; 10 μM preincubation) [%] | cell death (hippocampal brain slices)
1 | O=C1N(c2ccc(C(F)(F)F)cc2)CCCN1S(=O)(=O)c1ccc(F)cc1 [Compound 24, 1-((4-Fluorophenyl)sulfonyl)-3-(4-(trifluoromethyl)phenyl)-tetrahydropyrimidin-2(1H)-one] | no effect | no effect | profoundly inhibiting | did not affect | 100±0.97 | – | –
2 | COc1ccc(S(=O)(=O)N2CCCN(c3ccc(C(F)(F)F)cc3)C2=O)cc1 [Compound 23, 1-((4-Methoxyphenyl)sulfonyl)-3-(4-(trifluoromethyl)phenyl)-tetrahydropyrimidin-2(1H)-one] | no effect | no effect | profoundly inhibiting | did not affect | 92±3.09 | – | –
3 | COc1ccc(S(=O)(=O)N2CCN(c3ccc(C(F)(F)F)cc3)C2=O)cc1 [Compound 25, 1-((4-Methoxyphenyl)sulfonyl)-3-(4-(trifluoromethyl)phenyl)-imidazolidin-2-one] | no effect | no effect | profoundly inhibiting | did not affect | – | 97±2.50 | –
4 | Cc1c2c(=O)n(-c3ccccc3Cl)[nH]c2cc(=O)n1Cc1ccccn1 [GKT136901] | – | – | – | – | – | – | significantly reduced
